# Measurements: patent US9233237B2, “Apparatus and method for periodic fluid-delivery/fluid-removal cycles in the cranial subarachnoid space to treat cerebral cortical disorders” (NEW YORK UNIVERSITY, priority 2010, dated 2016)
# System: monkey
# Experiment: EEG effects of drugs delivered through the implanted subdural/subarachnoid sheet body in a monkey
# Format: in vivo
# Details: acetylcholine-induced EEG seizure, delivery through the sheet body over right frontal cortex (FIG. 8)
# Description: In this experiment, drugs with known pharmacological actions were delivered through the sheet body 102 to test whether the inlet and outlet ports 112, 114 were clogged or obstructed, with the effects of the administered drugs monitored via EEG electrode contacts 113 integrated into the sheet body 102. The experiment was performed in a monkey approximately three months after the implantation of the sheet body 102 over the animal's right frontal cortex and the implantation of the control unit 130. During this post-surgical period, the delivery fluid was saline. On the day of this experiment, the mini-pump was temporarily modified to deliver a seizure-inducing agent (acetylcholine) through the sheet body 102, followed by a delivery of an antiepileptic drug (muscimol) through the same route. Traces 1 to 3 of FIG. 6 represent EEG recordings obtained with the EEG electrodes integrated into the subarachnoid sheet (ipsilateral recording channels 1, 2 and 3). The fourth trace of FIG. 6 was obtained from a subdural/subarachnoid electrode placed, during device implantation, in the left-side frontal cortex (contralateral recording channel).
smiles,measurement,value
NCc1cc(=O)[nH]o1 [muscimol],time to stop of EEG seizure after delivery,≤ 2 min
